Assay results as given in ChEMBL document CHEMBL4414608, “Secophragmalin-Type Limonoids from Trichilia connaroides: Isolation, Semisynthesis, and Their Cytotoxic Activities” (J Nat Prod, 2019).

What was measured:
Assay type in all cases: functional, cell-based
HeLa = test: Cytotoxicity against human HeLa cells assessed as cell growth inhibition measured after 24 hrs by MTT assay
A549 = test: Cytotoxicity against human A549 cells assessed as cell growth inhibition measured after 24 hrs by MTT assay; settings: A549, 24 h
SK-OV-3 = test: Cytotoxicity against human SKOV3 cells assessed as cell growth inhibition measured after 24 hrs by MTT assay; settings: SK-OV-3, 24 h
COLO 205 = test: Cytotoxicity against human COLO205 cells assessed as cell growth inhibition measured after 24 hrs by MTT assay; settings: COLO 205, 24 h
DU-145 = test: Cytotoxicity against human DU145 cells assessed as cell growth inhibition measured after 24 hrs by MTT assay; settings: DU-145, 24 h

| Structure (SMILES) | IC50 (HeLa) | IC50 (A549) | IC50 (SK-OV-3) | IC50 (COLO 205) | IC50 (DU-145) |
| --- | --- | --- | --- | --- | --- |
| C/C=C(\C)C(=O)O[C@H]1[C@]2(C)C[C@@H]3O[C@@]1(O)C=C1C4=CC(=O)O[C@@H](c5ccoc5)[C@]4(C)CC[C@@H]1[C@]3(C)[C@@H]2[C@@H](O)C(=O)OC | > 100 µM | 8.1 µM | > 100 µM | > 100 µM | 7.7 µM |
| C/C=C(\C)C(=O)O[C@H]1[C@]2(C)C[C@@H]3O[C@@]1(O)C=C1C4=CC(=O)O[C@@H](c5ccoc5)[C@]4(C)CC[C@@H]1[C@]3(C)[C@@H]2C(=O)C(=O)OC | > 100 µM | 44.4 µM | > 100 µM | > 100 µM | > 100 µM |
| C/C=C(\C)C(=O)O[C@@H]1[C@]2(OC(=O)C3CC3)C=C3C4=CC(=O)O[C@@H](c5ccoc5)[C@]4(C)CC[C@@H]3[C@@]3(C)[C@H](C[C@]1(C)[C@H]3[C@@H](OC(=O)C1CC1)C(=O)OC)O2 | > 100 µM | > 100 µM | > 100 µM | > 100 µM | > 100 µM |
| C/C=C(\C)C(=O)O[C@@H]1C(=O)/C=C2/C3=CC(=O)O[C@@H](c4ccoc4)[C@]3(C)CC[C@@H]2[C@@]2(C)C(=O)C[C@]1(C)[C@@H]2[C@@H](O)C(=O)OC | > 100 µM | > 100 µM | > 100 µM | > 100 µM | 10.5 µM |
| C/C=C(\C)C(=O)O[C@@H]1[C@]2(OC(=O)CC)C=C3C4=CC(=O)O[C@@H](c5ccoc5)[C@]4(C)CC[C@@H]3[C@@]3(C)[C@H](C[C@]1(C)[C@H]3[C@@H](OC(=O)CC)C(=O)OC)O2 | > 100 µM | > 100 µM | > 100 µM | > 100 µM | > 100 µM |
| COC(=O)[C@H](O)[C@@H]1[C@@]2(C)C[C@@H]3O[C@@](O)(C=C4C5=CC(=O)O[C@@H](c6ccoc6)[C@]5(C)CC[C@@H]4[C@@]31C)[C@H]2O | > 100 µM | 9.6 µM | > 100 µM | > 100 µM | > 100 µM |
| C/C=C(\C)C(=O)O[C@@H]1[C@]2(OC(=O)c3ccco3)C=C3C4=CC(=O)O[C@@H](c5ccoc5)[C@]4(C)CC[C@@H]3[C@@]3(C)[C@H](C[C@]1(C)[C@H]3[C@@H](OC(=O)c1ccco1)C(=O)OC)O2 | > 100 µM | 7.6 µM | > 100 µM | > 100 µM | 17.8 µM |
| C/C=C(\C)C(=O)O[C@@H]1[C@]2(OC(=O)CC)C=C3C4=CC(=O)O[C@@H](c5ccoc5)[C@]4(C)CC[C@@H]3[C@@]3(C)[C@H](C[C@]1(C)[C@H]3[C@@H](O)C(=O)OC)O2 | > 100 µM | > 100 µM | > 100 µM | > 100 µM | 6.7 µM |
| C/C=C(\C)C(=O)O[C@@H]1[C@]2(OC(=O)C3CC3)C=C3C4=CC(=O)O[C@@H](c5ccoc5)[C@]4(C)CC[C@@H]3[C@@]3(C)[C@H](C[C@]1(C)[C@H]3[C@@H](O)C(=O)OC)O2 | > 100 µM | 11.8 µM | > 100 µM | > 100 µM | > 100 µM |
| C/C=C(\C)C(=O)O[C@@H]1[C@]2(OC(=O)C(C)C)C=C3C4=CC(=O)O[C@@H](c5ccoc5)[C@]4(C)CC[C@@H]3[C@@]3(C)[C@H](C[C@]1(C)[C@H]3[C@@H](OC(=O)C(C)C)C(=O)OC)O2 | > 100 µM | > 100 µM | > 100 µM | > 100 µM | > 100 µM |
| C/C=C(\C)C(=O)O[C@H]1[C@]2(C)C[C@@H]3O[C@@]1(O)C=C1C4=CC(=O)O[C@@H](c5ccoc5)[C@]4(C)CC[C@@H]1[C@]3(C)[C@@H]2[C@@H](OC(C)=O)C(=O)OC | > 100 µM | > 100 µM | > 100 µM | > 100 µM | > 100 µM |
